Data on 40 molecules can be found in US8563746B2, “Cyclic benzimidazole derivatives useful as anti-diabetic agents” (Merck Sharp & Dohme Corp, priority 2008, dated 2013).

Where only a bound is given, the exact number is not on record here.

For orientation: EC50 means the concentration giving half of the maximal effect. As a reminder, the Emax is the size of the effect at its maximum, as opposed to the concentration needed.

The target of the first experiment is recombinant human AMPK complex 1 (containing α1β1γ1) (Homo sapiens, UniProt Q13131+Q9Y478). Briefly: In vitro AMPK activation assay ([…]). The format is biochemical.
Sequence of recombinant human AMPK complex 1 (containing α1β1γ1) (Q13131 whole entry): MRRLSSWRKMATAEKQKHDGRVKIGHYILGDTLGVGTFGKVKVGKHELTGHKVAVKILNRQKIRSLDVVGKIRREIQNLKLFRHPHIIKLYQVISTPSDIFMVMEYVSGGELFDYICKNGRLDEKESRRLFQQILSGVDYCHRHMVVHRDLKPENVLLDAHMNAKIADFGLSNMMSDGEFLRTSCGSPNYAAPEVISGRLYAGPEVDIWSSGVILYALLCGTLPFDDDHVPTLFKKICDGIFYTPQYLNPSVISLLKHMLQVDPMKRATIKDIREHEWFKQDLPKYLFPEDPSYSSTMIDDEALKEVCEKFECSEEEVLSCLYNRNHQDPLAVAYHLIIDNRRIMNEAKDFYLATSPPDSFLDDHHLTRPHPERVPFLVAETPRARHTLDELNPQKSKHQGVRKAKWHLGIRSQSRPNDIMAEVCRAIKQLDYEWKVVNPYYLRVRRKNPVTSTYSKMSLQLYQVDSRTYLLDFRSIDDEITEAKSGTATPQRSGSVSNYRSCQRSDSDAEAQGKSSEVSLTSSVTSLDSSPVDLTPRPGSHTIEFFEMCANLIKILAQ
Sequence of recombinant human AMPK complex 1 (containing α1β1γ1) (Q9Y478 whole entry): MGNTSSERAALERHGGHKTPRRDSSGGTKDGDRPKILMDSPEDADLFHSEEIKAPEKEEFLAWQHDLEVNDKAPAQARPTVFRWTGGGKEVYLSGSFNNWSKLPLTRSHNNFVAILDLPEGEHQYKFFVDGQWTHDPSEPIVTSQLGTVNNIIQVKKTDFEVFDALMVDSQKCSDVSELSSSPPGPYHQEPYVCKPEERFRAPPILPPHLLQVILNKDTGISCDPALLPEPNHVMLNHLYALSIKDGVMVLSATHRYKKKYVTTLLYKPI
Sequence of recombinant human AMPK complex 1 (containing α1β1γ1) (P54619 whole entry partner): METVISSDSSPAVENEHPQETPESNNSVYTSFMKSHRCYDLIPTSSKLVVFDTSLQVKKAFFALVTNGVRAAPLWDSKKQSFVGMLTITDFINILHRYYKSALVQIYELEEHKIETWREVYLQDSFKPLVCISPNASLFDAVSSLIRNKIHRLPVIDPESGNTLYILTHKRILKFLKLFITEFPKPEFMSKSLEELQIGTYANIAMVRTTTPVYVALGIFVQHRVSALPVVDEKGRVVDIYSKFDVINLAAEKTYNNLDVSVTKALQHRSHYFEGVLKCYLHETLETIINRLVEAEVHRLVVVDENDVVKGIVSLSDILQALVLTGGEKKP
Details: not given
As for the experimental part: The recombinant human AMPK complex 1 (containing α1β1γ1) was obtained from baculovirus expression system. Recombinant viruses were generated by cotransfection of AMPK/pBacPak9 clones with Baculogold baculovirus DNA (Pharmingen) in spodoptera frugiperda 21 cells according to the manufacturer's instructions. Each round of virus amplification was performed for 5 days in Grace's medium containing 10% serum. Virus that had been subjected to three rounds of amplification was used for all protein production procedures. To express the AMPK complex, sf21 cells were adapted to serum free medium (SF900 II, Invitrogen) by sequential dilution from serum containing stocks into SF900II medium and maintained in shaker flasks at 90 rpm at 27° C. The recombinant AMPK enzyme complex was produced by triple infection, one recombinant virus for each of the subunits, in sf21 cells under serum free conditions. Cells were infected in log phase, 1×10^6 cells/ml, at a multiplicity of infection of ˜5. Cells were harvested by centrifugation at 10,000×g for 15 minutes after 72 hours of infection with viruses. The insect cell pellet from 2 liters of culture was resuspended in 50 ml lysis buffer (20 mM Tris-HCl, 50 mM NaCl, 50 mM NaF, 30 mM Na PPi, 0.25 M sucrose, 10 mM ZnCl2, 2 mM DTT, 0.4 mg/ml digitonin) and subjected to two cycles of freeze-thaw lysis in a dry-ice ethanol bath. Insoluble material was removed by centrifugation at 10,000×g and the supernatant was fractionated with use of polyethylene glycol (PEG). The protein fraction precipitating between 2.5 and 6% PEG was used for further purification using a Blue-Sepharose step (Zhou et al, J. Clin. Invest. 108, 1167-1174, 2001).
The total in vitro AMPK activation assay volume is 50 μl in a 96-well plate. The reaction mixture contained 100 μM ATP (0.5 μCi ^33P-ATP per reaction), and 50 μM SAMS ([…]) in a buffer (20 mM HEPES, pH 7.0, 5 mM MgCl2, 0.01% Brij35). The reaction was initiated with addition of the enzyme. After 30-minute incubation at 30° C., the reaction was stopped by addition of 80 μl 1% H3PO4. Aliquots (100 μl) were transferred to 96-well MultiScreen plates (MAPHNOB50; Millipore Corp., Bedford, Mass., USA). The plate was washed three times with 1% H3PO4 followed by detection in a Top-count. The counts per minute from the basal activity (the reaction without activator) was subtracted from each well and the data were expressed as % maximum AMP activation followed by EC50 calculation.
For `O=C(O)CSc1nc2cc(C#Cc3ccccc3)c(Cl)cc2[nH]1` [Example 1, (6-Chloro-5-phenylethynyl-1H-benzoimidazol-2-ylsulfanyl)-acetic acid], the EC50 stood at 259 nM.
`O=C(O)CSc1nc2cc(-c3ccc(-c4ccccc4)cc3)c(Cl)cc2[nH]1` [Example 2, (5-Biphenyl-4-yl-6-chloro-1H-benzoimidazol-2-ylsulfanyl)-acetic acid]: the 50% effective concentration (EC50) turned out to be 90 nM.

The experiment is the same for the next values; noted with them: recombinant human AMPK complex 1 (α1β1γ1); basal activity subtracted, expressed as % maximum AMP activation.
As for `O=C(O)CSc1nc2cc(-c3cc4ccccc4o3)c(Cl)cc2[nH]1` [Example 13, 2-(5-(benzofuran-2-yl)-6-chloro-1H-benzo[d]imidazol-2-ylthio)acetic acid], the Emax is above 40%.
`Cc1cc(-c2cc3nc(SCC(=O)O)[nH]c3cc2Cl)ccc1Cl` [Example 85]: the Emax was above 40%.
With `O=C(O)CSc1nc2cc(-c3ccc(-n4cccn4)cc3)c(Cl)cc2[nH]1` [Example 15, 2-(5-(4-(1H-pyrazol-1-yl)phenyl)-6-chloro-1H-benzo[d]imidazol-2-ylthio)acetic acid], the maximal response (Emax) was above 40%.
On to `COc1ccc2cc(C#Cc3cc4nc(SCC(=O)O)[nH]c4cc3Cl)ccc2c1` [Example 37, [6-chloro-5-(6-methoxy-naphthalen-2-yl-ethynyl)-1H-benzo-imidazol-2-yl-sulfanyl]-acetic acid], for which the maximum response (Emax) is above 40%.
For the molecule `O=C(O)CSc1nc2cc(C#Cc3ccccn3)c(Cl)cc2[nH]1` [Example 57], the Emax is above 40%.
Still for that read-out and setting: the figure for `O=C(O)CSc1nc2cc(C#Cc3ccncc3)c(Cl)cc2[nH]1` [Example 25, (6-chloro-5-pyridin-4-yl-ethynyl-1H-benzoimidazol-2-ylsulfanyl)-acetic acid] is above 40%; for `N#Cc1ccccc1C#Cc1cc2nc(SCC(=O)O)[nH]c2cc1Cl` [Example 20, [6-chloro-5-(2-cyano-phenyl-ethynyl)-1H-benzo-imidazol-2-ylsulfanyl]-acetic acid] it is above 40%.
Regarding `O=C(O)CSc1nc2cc(-c3ccc(N4CCOCC4)nc3)c(Cl)cc2[nH]1` [Example 62], the maximal response (Emax) was above 40%.
Same read-out and setting: the value for `O=C(O)CSc1nc2cc(-c3ccc4c(c3)OCO4)c(Cl)cc2[nH]1` [Example 3, (5-1,3-benzo-dioxol-5-yl-6-chloro-1H-benzimidazol-2-ylsulfanyl)-acetic acid] was above 40%.
As for `CNC(=O)c1ccc(C#Cc2cc3nc(SCC(=O)O)[nH]c3cc2Cl)cc1` [Example 83], the Emax is above 40%.
For `CS(=O)(=O)Nc1ccc(C#Cc2cc3nc(SCC(=O)O)[nH]c3cc2Cl)cc1` [Example 77], the Emax is above 40%.
As for `O=C(O)CSc1nc2cc(-c3ccc(CO)cc3)c(Cl)cc2[nH]1` [Example 9, 2-(6-chloro-5-(4-(hydroxymethyl)phenyl)-1H-benzo[d]-imidazol-2-ylthio)-acetic acid], the Emax was above 40%.
As for `CCc1ccc(C#Cc2cc3nc(SCC(=O)O)[nH]c3cc2Cl)cc1` [Example 36, [6-chloro-5-(4-ethyl-phenyl-ethynyl)-1H-benzo-imidazol-2-yl-sulfanyl]-acetic acid], the Emax was above 40%.
As for `O=C(O)CSc1nc2cc(-c3ccc(Cl)cc3)c(Cl)cc2[nH]1` [Example 41, [6-chloro-5-(4-chloro-phenyl)-1H-benzimidazol-2-ylsulfanyl]-acetic acid], the Emax was above 40%.
For the molecule `O=C(O)CSc1nc2cc(C#Cc3ccc(F)cc3)c(Cl)cc2[nH]1` [Example 22], the Emax is above 40%.
Take `C[S+]([O-])c1ccc(-c2cc3nc(SCC(=O)O)[nH]c3cc2Cl)cc1` (stereo not shown) [Example 86]: the maximal effect (Emax) was above 40%.
On to `O=C(O)CSc1nc2cc(C#Cc3cccs3)c(Cl)cc2[nH]1` [Example 38, (6-chloro-5-thiophen-2-yl-ethynyl-1H-benzo-imidazol-2-yl-sulfanyl)-acetic acid], for which the Emax is above 40%.
For `O=C(O)CSc1nc2cc(-c3ccc(C(F)(F)F)cc3)c(Cl)cc2[nH]1` [Example 81], the maximum response (Emax) is above 40%.
On the same count and under the same terms, the figure for `O=C(O)CSc1nc2cc(C#Cc3cccc(F)c3)c(Cl)cc2[nH]1` [Example 23] is above 40%; for `O=C(O)CSc1nc2cc(-c3ccc(-c4cnccn4)cc3)c(Cl)cc2[nH]1` [Example 73] it is above 40%; for `O=C(O)CSc1nc2cc(-c3ccc(OCc4ccccc4)cc3)c(Cl)cc2[nH]1` [Example 44, [5-(4-benzyl-oxy-phenyl)-6-chloro-1H-benzimidazol-2-ylsulfanyl]-acetic acid] it is above 40%.
As for `O=C(O)CSc1nc2cc(C#Cc3cc(F)cc(F)c3)c(Cl)cc2[nH]1` [Example 69], the maximal response (Emax) was above 40%.
In the case of `O=C(O)CSc1nc2cc(-c3ccc(Br)cc3)c(Cl)cc2[nH]1` [Example 79], the maximal response (Emax) was above 40%.
Regarding `N#Cc1ccc(C#Cc2cc3nc(SCC(=O)O)[nH]c3cc2Cl)cc1` [Example 28, [6-chloro-5-(4-cyano-phenyl-elhynyl)-1H-benzoimidazol-2-ylsulfanyl]-acetic acid], the maximum response (Emax) was above 40%.
In the case of `O=C(O)CSc1nc2cc(-c3ccc(N4CCCCC4)cc3)c(Cl)cc2[nH]1` [Example 60], the maximum response (Emax) is above 40%.
The same measure, in the same setting: the figure for `O=C(O)CSc1nc2cc(-c3ccc(-c4ccn[nH]4)cc3)c(Cl)cc2[nH]1` [Example 16, 2-(5-(4-(1H-pyrazol-5-yl)phenyl)-6-chloro-1H-benzo[d]imidazol-2-ylthio)acetic acid] is above 40%; for `O=C(O)CSc1nc2cc(C#CC3CCNCC3)c(Cl)cc2[nH]1` [Example 21, (6-chloro-5-piperidin-4-ylethynyl-1H-benzoimidazol-2-ylsulfanyl)-acetic acid] it is above 40%; for `O=C(O)CCc1nc2cc(-c3ccccc3)c(Cl)cc2[nH]1` [Example 50, 3-(6-Chloro-5-phenyl-1H-benzimidazol-2-yl)-propionic acid] it is above 40%.
Regarding `O=C(O)CSc1nc2cc(C#Cc3ccc(Cl)cc3)c(Cl)cc2[nH]1` [Example 67], the Emax was above 40%.
With `Cc1cccc(C#Cc2cc3nc(SCC(=O)O)[nH]c3cc2Cl)c1` [Example 31, (6-chloro-5-m-tolylethynyl-1H-benzoimidazol-2-ylsulfanyl)-acetic acid], the maximum response (Emax) is above 40%.
Regarding `O=C(O)CSc1nc2cc(-c3ccc4cn[nH]c4c3)c(Cl)cc2[nH]1` [Example 11, 2-(6-chloro-5-(1H-indazol-6-yl)-1H-benzo[d]imidazol-2-ylthio)acetic acid], the maximal response (Emax) is above 40%.
With `O=C(O)CSc1nc2cc(C#Cc3ccc(C(F)(F)F)cc3)c(Cl)cc2[nH]1` [Example 65], the Emax is above 40%.
Turning to `O=C(O)CSc1nc2cc(C#Cc3ccccc3F)c(Cl)cc2[nH]1` [Example 27], the maximal response (Emax) was above 40%.

Staying with this experiment, now noted: recombinant human AMPK complex 1 (α1β1γ1); read-out: EC50.
Consider `Cn1ccc2cc(-c3cc4nc(SCC(=O)O)[nH]c4cc3Cl)ccc21` [Example 59], for which the concentration giving a half-maximal response (EC50) is 100 nM.
For the molecule `O=C(O)COc1nc2cc(-c3ccc(-c4ccccc4)cc3)c(Cl)cc2[nH]1` [Example 46, [(5-biphenyl-4-yl-6-chloro-1H-benzimidazol-2-yl)oxy]ylacetic acid], the half-maximal effective concentration (EC50) amounted to 128 nM.
With `O=C(O)CSc1nc2cc(-c3ccc4[nH]ccc4c3)c(Cl)cc2[nH]1` [Example 66], the concentration for a half-maximal effect (EC50) was 282 nM.
On to `O=C(O)COc1nc2cc(-c3ccc(-c4ccn[nH]4)cc3)c(Cl)cc2[nH]1` [Example 45, {6-Chloro-5-[4-(2H-pyrazol-3-yl)-phenyl]-1H-benzoimidazol-2-yloxy}-acetic acid], for which the concentration giving a half-maximal response (EC50) stood at 160 nM.

Another experiment concerns ob/ob and db/db mice.
Test: not given
The note with it: following 8 weeks of administration; cited from earlier work.
Consider `NC(=O)c1ncn([C@@H]2O[C@H](CO)[C@@H](O)[C@H]2O)c1N` [AICAR], for which the blood glucose reduction is listed as 35%.
